Results as given in patent US8648100B2, “Roflumilast for the treatment of pulmonary hypertension” (Takeda GmbH, priority 2005, dated 2014).
Like-named read-outs stand apart in the source and are kept apart here.

Assays:
Type in all cases: in vivo, adult male Wistar rats
[1] = tested on: monocrotaline (MCT)-induced pulmonary arterial hypertension in rats; test: Monocrotaline (MCT)-induced pulmonary hypertension in rats, preventive treatment paradigm; details: for PAP: mean ± SEM; for Muscularization: distal pulmonary arteries; for RV/LV + S: right ventricular hypertrophy index
Protocol: (§1) The objective of the pharmacological investigation was to characterize the effect of orally administered Roflumilast at 0.5 mg kg^−1 d^−1 and 1.5 mg kg^−1 d^−1 on the increase in mean PAP and RV/LV+S ratio as well as distal arteriolar muscularization triggered by chronic hypoxia or monocrotalin (MCT) in rats. Hypoxia- or MCT-induced pulmonary hypertension in rats represent widely accepted animal models to study the potential of investigative drugs to reverse chronic pulmonary hypertension based on pulmonary vascular remodelling. In the MCT setting Roflumilast was administered both in preventive and curative paradigms.
(§2) Experiments were performed with adult male Wistar rats (200-250 g) according to institutional guidelines abiding to national and international regulations.
(§3) Rats were randomly assigned to three groups (8-10 animals in each group): two groups received Roflumilast 0.5 and 1.5 mg kg^−1 d^−1, respectively; and one group received vehicle. In the preventive treatment paradigm Roflumilast or vehicle were given once daily by gavage for 21 days starting immediately after a single subcutaneous injection of MCT (60 mg kg^−1). A group not receiving MCT served as control. In a curative approach rats were left untreated for 21 days following MCT (60 mg/kg s.c.) and than randomly divided into two groups, one received roflumilast (1.5 mg/kg/d) p.o. and the other vehicle, from day 21 to day 42.
(§4) At the end of the treatment period rats were anaethesized with sodium pentobarbital (60 mg/kg, i.p.). A polyvinyl catheter was introduced into the right jugular vein and pushed through the right ventricle into the pulmonary artery. Another polyethylene catheter was inserted into the right carotid artery. After measurement of pulmonary (PAP) and systemic arterial pressures (SAP), the thorax was opened and the left lung immediately removed and frozen in liquid nitrogen. The heart was dissected and weighed for calculation of the right ventricular hypertrophy index (ratio of right ventricular free wall weight over sum of septum plus left ventricular free wall weight; RV/LV+S). The right lung was fixed in the distended state with formalin buffer. After routine processing and paraffin embedding, multiple sections from each lobe were stained with haemotoxylin and eosin. In each rat, 60 intraacinar arteries were analyzed and categorized as muscular (fully or partially) or nonmuscular to assess the degree of muscularization. In addition, intraacinar fully muscularized arteries were evaluated for measurements of medial wall thickness which was calculated and expressed as follows: index (%)=(External diameter−internal diameter)/External diameter×100%.
(§5) The data are expressed as means±SEM. A nonparametric Mann-Whitney test was used for comparisons between two groups. Comparisons of data at various times after MCT injection or of various treatment groups were performed using a nonparametric Kruskal-Wallis test followed by Dunn's test when significant. To compare the degree of pulmonary vessels muscularization between groups, we used a non parametric Mann-Whitney or a Kruskal-Wallis test after ordinal classification of the vessels as non muscular, partially muscular, or fully muscular.

[2] = tested on: chronic hypoxia-induced pulmonary arterial hypertension in rats; details: for PAP: mean ± SEM; for RV/LV + S: right ventricular hypertrophy index; for Muscularization: distal pulmonary arteries
Protocol: as §1, §2
Rats were exposed to chronic hypoxia (10% O2) in a ventilated chamber (500-liter volume, Flufrance, Cachan, France). To establish the hypoxic environment, the chamber was flushed with a mixture of room air and nitrogen, and the gas was recirculated. The environment within the chamber was monitored using an oxygen analyzer (Oxiquant M, EnviTeC—Wismar, Germany). Carbon dioxide was removed by self-indicating soda lime granules. Excess humidity was prevented by cooling of the recirculation circuit. The chamber temperature was maintained at 22-24° C. The chamber was opened every other day for 1 hour to clean the cages and replenish food and water supplies. Normoxic control rats were kept in the same room with identical light-dark cycle. Rats exposed to chronic hypoxia were randomly assigned to three groups (8-10 animals per group): the first group received Roflumilast at 0.5 mg kg^−1 d^−1, the second group received Roflumilast at 1.5 mg kg^−1 d^−1, the third group received vehicle (methocel). A group not exposed to hypoxia served as control. Roflumilast or vehicle were administered once daily by gavage over 15 days of exposure to hypoxia.
as §4, §5

[3] = tested on: monocrotaline (MCT)-induced pulmonary arterial hypertension in rats (curative approach); test: Monocrotaline (MCT)-induced pulmonary hypertension in rats, curative approach (treatment day 21 to day 42)
Protocol: as §3, §4, §5
In a curative approach Roflumilast (1.5 mg/kg/d) p.o. or vehicle were administered beginning at day 21 following MCT i.e. when pulmonary vascular remodeling and consequently augmented PAP and right ventricular hypertrophy were manifest. After another 3 weeks (i.e. at day 42) PAP was measured and rats were sacrificed to assess RV/LV+S ratio and muscularization of distal pulmonary arteries.

[4] = MCT + 0.5 mg/kg Roflumilast for 21 days
[5] = MCT + 1.5 mg/kg Roflumilast for 21 days
[6] = conclusion for pulmonary hypertension triggered by hypoxia or monocrotaline in rats
[7] = Hypoxia 15 days + 0.5 mg/kg Roflumilast once daily by gavage
[8] = Hypoxia 15 days + 1.5 mg/kg Roflumilast once daily by gavage
[9] = Day 42, Roflumilast 1.5 mg/kg/d p.o. starting day 21 after MCT

`O=C(Nc1c(Cl)cncc1Cl)c1ccc(OC(F)F)c(OCC2CC2)c1` [Roflumilast, 3-cyclopropyl-methoxy-4-difluoromethoxy-N-(3,5-dichloropyrid-4-yl)benzamide] gave a PAP ([1]; MCT 60 mg/kg s.c. + 0.5 mg/kg Roflumilast once daily by gavage for 21 days) of 29.3 ± 1.3 mm Hg, a PAP ([1]; MCT 60 mg/kg s.c. + 1.5 mg/kg Roflumilast once daily by gavage for 21 days) of 21.4 ± 2.0 mm Hg and a Muscularization [1, 4] of 62.7 ± 5.4%. The “RV/LV + S” value [1, 4] was 38.9 ± 1.6%, the Muscularization [1, 5] was 30.3 ± 8.2% and the “RV/LV + S” value [1, 5] was 31.3 ± 1.8%. The heart rate [1, 6] was “unaffected”, the systemic arterial pressure [1, 6] was “unaffected” and the PAP [2, 7] was 28 ± 1.8 mm Hg. The “RV/LV + S” value [2, 7] was 37.8 ± 2.3%, the Muscularization ([2]; Hypoxia 15 days + 0.5 mg/kg Roflumilast) was 31.8 ± 2% and the PAP [2, 8] was 25.5 ± 1.8 mm Hg. For the same compound, the “RV/LV + S” value [2, 8] was 30.5 ± 0.8%, the Muscularization ([2]; Hypoxia 15 days + 1.5 mg/kg Roflumilast) was 18.5 ± 2% and the PAP [3, 9] was 23.6 ± 0.7 mmHg. The “RV/LV + S” value [3, 9] was 33.8 ± 0.9%, the Muscularization ([3]; Day 42, Roflumilast 1.5 mg/kg/d p.o. starting day 21 after MCT, distal pulmonary arteries) was 36.4 ± 2.4% and the “survival rate (animals alive at day 42)” value ([3]; Roflumilast 1.5 mg/kg/d from day 21, 17 of 24 rats, vehicle 54%) was 71%. For the same compound, the “reduction of the proportion of fully muscularized arterioles” value ([3]; at day 42, Roflumilast 1.5 mg/kg/d from day 21) was over 50%, the “Medial wall thickness index of the fully muscularized pulmonary arterioles” value ([3]; at day 42, Roflumilast 1.5 mg/kg/d from day 21, vehicle 52±4%) was 18±2% and the “ratio of completely obliterated arterioles” value ([3]; at day 42, Roflumilast 1.5 mg/kg/d from day 21, vehicle 66±3%) was 30±5%.
